Reference: ChEMBL document CHEMBL2094269, “WEHI/Eskitis Trypanosoma b. brucei screening data”
Where “and” joins values, the source holds several entries; their conditions need not be identical. Equal values may be shown once.

System: Trypanosoma brucei brucei
Assay: microbe, parasite or virus in culture
Type: functional, organism-based, STIB 795
Description: DNDI: Inhibition of Human African Trypanosomiasis (HAT), STIB 795, in vitro

| IC50 (Trypanosoma brucei, STIB 795) | IC50 | Compound |
| --- | --- | --- |
| > 10.4 µM | – | CCC(C)(CC)c1ccc(C(CN)c2ccc(-c3ccccc3)cc2)cc1 (stereo not given) |
| > 10.4 µM | – | Cc1c(-c2cc(F)cc3c2CC(C)(C)O3)ccc2nc(N)nc(N)c12 |
| > 10.4 µM | – | CN1CCC(Oc2ccccc2Sc2ccc(C(F)(F)F)cc2)CC1 |
| > 10.4 µM | – | COc1ccccc1C(=O)NCCc1csc(-c2cccc(F)c2)n1 |
| > 10.4 µM | – | N#Cc1cc(C#N)c(SCC(=O)Nc2cccc(C(F)(F)F)c2)nc1N |
| > 10.4 µM | – | Cc1nc(SCC(=O)NC2CCCCC2)n(-c2ccccc2)c1C |
| > 10.4 µM | – | Cc1ccc(C(CNC(=O)COc2ccc(Cl)cc2)N2CCCC2)cc1 (stereo not given) |
| > 10.4 µM | – | c1ccc(-c2cc(-c3ccccn3)nc(-c3ccccn3)c2)cc1 |
| > 10.4 µM | – | N=C(N)Nc1nc(-c2ccccc2)c2cc(Cl)ccc2n1 |
| 5.19 µM | 4.73 µM | Cc1cc2cc3c(cc2c(C)n1)c1ccccc1n3C |
| > 10.4 µM | – | COC(=O)c1cc(-c2ccccc2)nc2c1C(=O)C(=O)C=C2N1CCCCC1 |
| > 10.4 µM | – | CCC(=O)NCCc1nc(-c2ccccc2)cs1 |
| > 10.4 µM | – | Cc1ccc2cc3c(nc2c1)-c1ccccc1/C3=N/NC(N)=S |
| > 10.4 µM | – | O=C(NO)c1ccccc1C(F)(F)F |
| > 10.4 µM | – | C=CCN1C(=O)/C(=N/NC(=S)SC)c2ccccc21 |
| > 10.4 µM | – | CC(C)CNC(=O)Nc1cccc(-c2noc(C3(c4ccccc4)CC3)n2)c1 |
| > 10.4 µM | – | Cc1cccc(/C=N\Nc2nncc(-c3ccccc3)n2)n1 |
| > 10.4 µM | – | CCCNc1nc(NC2CCCCC2)nc(NC2CCCCC2)n1 |
| > 10.4 µM | – | O=C(Nc1ccccc1C(=O)N/N=C/c1ccccc1O)c1ccco1 |
| > 10.4 µM | – | O=C(NCC1CCCO1)c1cnc2sc3c(n2c1=O)CCC3 (stereo not given) |
| > 10.4 µM | – | c1ccc(/C(=N\Nc2nc3ccccc3s2)c2ccccn2)cc1 |
| > 10.4 µM | – | CCN1c2ccccc2NC2=C(C(=O)CC(C)(C)C2)C1c1ccc(OC)cc1 (stereo not given) |
| > 10.4 µM | – | CCOC(=O)c1c(C)[nH]c(=S)c(C#N)c1-c1ccncc1 |
| > 10.4 µM | – | CCC(C)(C)c1ccc(OCC(O)CNCc2ccccc2)c(C(C)(C)CC)c1 (stereo not given) |

| IC50 (Trypanosoma brucei, STIB 795) | IC50 | Compound |
| --- | --- | --- |
| > 10.4 µM | – | CC(=O)C1=C(c2ccc(Br)cc2)C(=O)c2ccccc2C1=O |
| > 10.4 µM | – | O=C(/C(=C/c1cccnc1)c1nc2ccccc2[nH]1)c1ccccc1 |
| – | 5.11 µM and 1.33 µM | O=C1CC(n2nnn(C3CCCCC3)c2=S)C2COC1O2 (stereo not given) |
| > 10.4 µM | – | C/C(=C\c1nsc(Nc2ccc(F)c(Cl)c2)n1)Nc1ccc(C)cc1 |
| > 10.4 µM | – | Fc1ccc(C2CCCN(CCN3CCCC3)c3cc(F)ccc32)cc1 (stereo not given) |
| > 10.4 µM | – | OCCSc1nc2ccccc2nc1N/N=C/c1ccccc1O |
| > 10.4 µM | – | CC(C)=CCC1(C)C(=O)N(c2ccccc2)c2ccccc21 (stereo not given) |
| > 10.4 µM | – | CC1(C)CC(=O)C(C2(O)C(=O)Nc3ccc(Br)cc32)CO1 (stereo not given) |
| > 10.4 µM | – | CCOC(=O)Cc1csc(NC(=O)c2ccccc2F)n1 |
| 5.5 µM | 3.25 µM | Cn1c(-c2ccco2)nn(C2CC(=O)C3OCC2O3)c1=S (stereo not given) |
| > 10.4 µM | – | CCOC(=O)c1ccc(NC(=O)C(=O)NN=C2CCN(C)CC2)cc1 |
| > 10.4 µM | – | Cc1ccc(S(=O)(=O)Nc2ccc(Cl)c3cccnc23)cc1 |
| > 10.4 µM | – | CSc1ccc(C(Nc2ccccn2)c2ccc3cccnc3c2O)cc1 (stereo not given) |
| > 10.4 µM | – | COC(=O)c1ccccc1N/N=N/c1nc2ccccc2s1 |
| > 10.4 µM | – | CC1CCN(C(=S)NC(=O)c2ccccc2I)CC1 |
| > 10.4 µM | – | CCn1c2ccccc2c2cc(CNCCc3ccc(OC)c(OC)c3)ccc21 |
| > 10.4 µM | – | O=C(Nc1ccc(Cl)c(-c2nc3ncccc3o2)c1)c1cccc(F)c1 |
| > 10.4 µM | – | CCOC(=O)c1ccc(Nc2nc(-c3cccnc3)nc3ccccc23)cc1 |
| > 10.4 µM | – | CC1CN(C(=O)c2ccc(COc3ccc(C(C)C)cc3)cc2)CC(C)O1 (stereo not given) |
| > 10.4 µM | – | OC(CNCCc1ccccc1)CN1c2ccccc2Sc2ccccc21 (stereo not given) |
| > 10.4 µM | – | CC1CC(OCC(O)CN2CCC(Cc3ccccc3)CC2)CC(C)(C)C1 (stereo not given) |
| > 10.4 µM | – | Cc1ccc(C(=O)O/N=C(\N)c2cccnc2)cc1Cl |
| > 10.4 µM | – | O=C(NN=C(/C=C/c1ccccc1)c1ccccc1)c1cc2ccccc2cc1O |
| > 10.4 µM | – | CCOC(=O)c1ccc(CCCCCOc2cnc(N)nc2N)cc1 |

| IC50 (Trypanosoma brucei, STIB 795) | IC50 | Compound |
| --- | --- | --- |
| > 10.4 µM | – | O=c1c(-c2ccccc2)c(-c2ccccc2)[nH]c2ccccc12 |
| > 10.4 µM | – | CCN1CCC(N(Cc2cccs2)C(=O)Nc2ccc(C)c(Cl)c2)CC1 |
| > 10.4 µM | – | Oc1ccc(CN2CCC(Cc3ccccc3)CC2)c2cccnc12 |
| > 10.4 µM | – | COC(=O)c1cc(NC(=O)Nc2ccc3snnc3c2)cc(C(=O)OC)c1 |
| > 10.4 µM | – | CCOC(=O)C1CCCN(C2=NC(=O)/C(=C/c3ccc(O)c(OC)c3)S2)C1 (stereo not given) |
| > 10.4 µM | – | CN(C)CCCC1=Cc2ccccc2Sc2ccccc21 |
| > 10.4 µM | – | CSC1C(c2ccc(F)cc2)=NN(C(=O)Nc2ccc(C#N)cc2)C1(C)C (stereo not given) |
| > 10.4 µM | – | COc1nc(Nc2ccc(Cl)cc2)nc(NC(C)(C)C)n1 |
| > 10.4 µM | – | OCCNCc1c(OCc2ccc(Cl)cc2Cl)ccc2ccccc12 |
| > 10.4 µM | – | CCOC(=O)c1c(-c2cccs2)csc1NC(=O)C#Cc1ccccc1 |
| > 10.4 µM | – | CCOC(=O)Cc1ccc(NCc2ccc(F)cc2)cc1 |
| > 10.4 µM | – | Cc1ccn(CC(=O)N/N=C/c2c(O)ccc3ccccc23)n1 |
| > 10.4 µM | – | Cn1c(=O)n(C)c2cc(N3CCCCC3)c(NC(=O)c3ccco3)cc21 |
| > 10.4 µM | – | Clc1ccc(C(=C2CN3CCC2CC3)c2ccc(Cl)s2)s1 |
| > 10.4 µM | – | CCn1c2ccccc2c2cc(NC(=O)C(=O)NCCCN(C)C)ccc21 |
| > 10.4 µM | – | O=C(CC(SCCO)c1ccc2c(c1)OCO2)c1cccs1 (stereo not given) |
| > 10.4 µM | – | CC1=C/C(=N\OC(=O)c2ccccc2Br)CC(C)(C)C1 |
| > 10.4 µM | – | O=C(N/N=C/c1ccc(Br)cc1O)c1n[nH]c2c1CCC2 |
| > 10.4 µM | – | COc1cccc(Nc2nc(N)c(C(=O)c3ccccc3F)s2)c1 |
| > 10.4 µM | – | COc1ccc(-c2n/c(=N/c3ccccc3)sn2-c2ccccc2)cc1 |
| > 10.4 µM | – | O=C(/C=C/c1ccc(F)cc1)n1cnc2ccccc21 |
| 5.49 µM | 7.63 µM | Cc1c(C)n(CC(O)CNCc2ccccc2)c2ccccc12 (stereo not given) |
| > 10.4 µM | – | COc1ccccc1NCN1C(=O)C(=O)c2cc(Br)ccc21 |
| > 10.4 µM | – | O=C(N/N=C\c1ccc(-c2cccc(Cl)c2Cl)o1)c1ccc(F)cc1 |

| IC50 (Trypanosoma brucei, STIB 795) | IC50 | Compound |
| --- | --- | --- |
| > 10.4 µM | – | CCCCNc1ccc2cccc(O)c2n1 |
| > 10.4 µM | – | Cc1cc(N2CCC(C)CC2)nc2ccc(NC(=O)c3cccc(Cl)c3)cc12 |
| > 10.4 µM | – | Cc1ccc(Nc2nc3nonc3nc2NC(C)c2ccccc2)cc1C (stereo not given) |
| > 10.4 µM | – | CCCCN(CCCC)CCNC(=O)Nc1ccc(Cl)cc1 |
| > 10.4 µM | – | CCOC(=O)COc1ccc(/C=C\c2cc(C(F)(F)F)nc(=O)[nH]2)cc1OC |
| > 10.4 µM | – | Clc1ccc(Sc2ccc(/C=N/n3cnnc3)o2)cc1 |
| > 10.4 µM | – | Cc1cc(C(=O)CN2CCCCC2)c(C)n1-c1ccc(Cl)c(Cl)c1 |
| > 10.4 µM | – | Cc1occc1C(=O)N/N=C/c1ccc(-c2ccc(Cl)cc2Cl)o1 |
| > 10.4 µM | – | COc1cccc(/C=C2/CN(C(C)C)C/C(=C\c3cccc(OC)c3)C2=O)c1 |
| > 10.4 µM | – | Cc1ccc(S(=O)(=O)/N=C2\C=C(N3CCOCC3)C(=O)c3ccccc32)cc1 |
| > 10.4 µM | – | Cc1ccccc1C(=O)/C(C#N)=N/Nc1c(C)n(C)n(-c2ccccc2)c1=O |
| > 10.4 µM | – | CCc1no[c+](-c2ccccc2O)n1C |
| > 10.4 µM | – | CCN(CC)c1cc(C)c2cc(NC(=O)C3CCC(C(C)(C)C)CC3)ccc2n1 (stereo not given) |
| > 10.4 µM | – | CCn1cc(CN2CCC(C(=O)NCc3ccc(F)cc3)CC2)c2ccccc21 |
| > 10.4 µM | – | CC(=O)c1sc(Nc2nc(NC(C)C)nc(NC(C)C)n2)nc1C |
| > 10.4 µM | – | Clc1ccc(Nc2nc3nonc3nc2NC2CCCCC2)cc1Cl |
| > 10.4 µM | – | CCCCOc1ccc(C(=O)NNC(=S)NC(=O)CC)cc1 |
| > 10.4 µM | – | N=C1C=Cc2ccc(N)c3cccc1c23 |
| > 10.4 µM | – | CCC(=O)c1sc(Nc2ccc(F)c(Cl)c2)nc1N |
| > 10.4 µM | – | CC(C)(C)c1ccc(C(OC(CN)c2ccccc2)c2ccc(Cl)cc2)cc1 (stereo not given) |
| 4.53 µM | 5.08 µM | COc1ccc(-c2nn(C3CC(=O)C4OCC3O4)c(=S)n2C)cc1OC (stereo not given) |
| > 10.4 µM | – | COC(=O)c1sc(=S)n(-c2cc(F)ccc2F)c1N |
| > 10.4 µM | – | OC(C#CCN1CCOCC1)(c1ccc(Cl)cc1)c1cccc(Cl)c1 (stereo not given) |
| > 10.4 µM | – | CCN(CC)CCn1c2ccccc2c2nc3ccccc3nc21 |

| IC50 (Trypanosoma brucei, STIB 795) | IC50 | Compound |
| --- | --- | --- |
| > 10.4 µM | – | O=C(N/N=C/c1cc(Cl)ccc1O)c1ccccc1Br |
| > 10.4 µM | – | COc1ccccc1-n1c(C)cc(/C=C2\C(=N)N3C(C)=CSC3=NC2=O)c1C |
| > 10.4 µM | – | Cc1nc2ncnn2c(Sc2ccc(NC(=O)CC(C)C)cc2)c1C |
| > 10.4 µM | – | C(=N\n1cnnc1)/c1cccc(OCCOc2ccccc2)c1 |
| > 10.4 µM | – | CCn1c(-c2ccccc2Cl)nc2ccccc21 |
| > 10.4 µM | – | CCCc1ccc(C(OCCN(C)C)c2ccc(CCC)cc2)cc1 |
| > 10.4 µM | – | Fc1cccc(Cl)c1COc1ccc(/C=N/n2cnnc2)cc1 |
| > 10.4 µM | – | Oc1ccc(Br)c2ccc(/C=C/c3ccccc3)nc12 |
| > 10.4 µM | – | O=C(O)CSc1cc(NS(=O)(=O)c2ccccc2)c2ccccc2c1O |
| > 10.4 µM | – | CCC(=O)N1CCN(c2oc(/C=C/c3ccc(Cl)cc3)nc2C#N)CC1 |
| > 10.4 µM | – | O=C(Nc1nc(-c2ccccn2)cc2ccccc12)c1cccc(Cl)c1 |
| > 10.4 µM | – | COc1cccc(C(=O)Nc2ccc3nc(N4CCOCC4)cc(C)c3c2)c1 |
| > 10.4 µM | – | C=CCc1c(C)nc(SC)nc1Nc1ccc(C(C)=O)cc1 |
| > 10.4 µM | – | Fc1ccc(OCc2nn3c(-c4ccccc4Cl)nnc3s2)cc1 |
| > 10.4 µM | – | O=C(CN1C2=NCCN2c2ccccc21)c1ccc(Cl)cc1 |
| > 10.4 µM | – | NC(=S)N/N=C(/c1ccc(C(F)(F)F)cc1)c1ccccn1 |
| > 10.4 µM | – | C=CCc1cccc(/C=N/NC(=O)c2nonc2C)c1O |
| > 10.4 µM | – | CN1CCC(C2Oc3ccc(F)cc3Sc3ccc(Cl)cc32)CC1 (stereo not given) |
| > 10.4 µM | – | Cc1cc(=O)[nH]c(Nc2ccc(Br)cc2)n1 |
| > 10.4 µM | – | CC(C)CCOc1ccc(/C=N/NC(=O)C23CC4CC(C)(CC(C)(C4)C2)C3)cc1 |
| > 10.4 µM | – | O=C(CC1(O)C(=O)Nc2ccc(Br)cc21)c1ccc(Cl)s1 (stereo not given) |
| > 10.4 µM | – | C=CCn1c(Oc2ccccc2Cl)nc2c1c(=O)n(C)c(=O)n2C |

| Compound | IC50 (Trypanosoma brucei, STIB 795) | IC50 |
| --- | --- | --- |
| Fc1ccc(C(OCCN2CCCC2)c2ccc(Br)cc2)cc1 (stereo not given) | > 10.4 µM | – |
| CCN(CC)c1ccc(CNCCc2c(C)[nH]c3ccccc23)cc1 | 5.01 µM | 3.4 µM |
